According to the supplement of paper PMC10307832:

How the values were obtained:
Assay in all cases: relative viability (nuclei count vs DMSO), 5 days (fraction); higher = more cells survive
[1] = compound: Cc1ccc(NC(=O)c2ccc(CN3CCN(C)CC3)cc2)cc1Nc1nccc(-c2cccnc2)n1 [Imatinib] + CC(=O)c1c(C)c2cnc(Nc3ccc(N4CCNCC4)cn3)nc2n(C2CCCC2)c1=O [Palbociclib] (partner 0.5 µM)
In short: (§1)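 Lung cancer cell lines were pin-tool dosed in 1536-well plates on the day after seeding, with either a lone drug or a fixed anchor-drug dose plus five library-drug doses (not always all listed) in √10 steps. Nuclei were counted on 4× images after 5 days. Relative viability is the ratio of treated-well to vehicle-well nuclei counts, with each value a median of duplicate plates.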

[2] = compound: Cc1ccc(NC(=O)c2ccc(CN3CCN(C)CC3)cc2)cc1Nc1nccc(-c2cccnc2)n1 [Imatinib] + Cc1nc(Nc2ncc(C(=O)Nc3c(C)cccc3Cl)s2)cc(N2CCN(CCO)CC2)n1 [Dasatinib] (partner 0.075 µM)
In short: as §1

[3] = compound: Cc1ccc(NC(=O)c2ccc(CN3CCN(C)CC3)cc2)cc1Nc1nccc(-c2cccnc2)n1 [Imatinib] + NC(=O)Nc1cc(-c2cccc(F)c2)sc1C(=O)N[C@H]1CCCNC1 [AZD7762] (partner 0.2 µM)
In short: as §1

[4] = compound: Cc1ccc(NC(=O)c2ccc(CN3CCN(C)CC3)cc2)cc1Nc1nccc(-c2cccnc2)n1 [Imatinib] + COc1cccc2cc(-c3nc([C@H]4CC[C@H](C(=O)O)CC4)n4ncnc(N)c34)[nH]c12 [OSI-027] (partner 0.5 µM)
In short: as §1

Cell Line	relative viability ([1]; first compound 0.02 µM)	relative viability ([1]; first compound 0.06325 µM)	relative viability ([1]; first compound 0.2 µM)	relative viability ([1]; first compound 0.6325 µM)	relative viability ([1]; first compound 2 µM)	relative viability ([2]; first compound 0.02 µM)	relative viability ([2]; first compound 0.2 µM)	relative viability ([2]; first compound 0.6325 µM)	relative viability ([2]; first compound 2 µM)	relative viability ([3]; first compound 0.02 µM)	relative viability ([3]; first compound 0.06325 µM)	relative viability ([3]; first compound 0.2 µM)	relative viability ([3]; first compound 0.6325 µM)	relative viability ([3]; first compound 2 µM)	relative viability ([4]; first compound 0.02 µM)	relative viability ([4]; first compound 0.06325 µM)	relative viability ([4]; first compound 0.2 µM)	relative viability ([4]; first compound 0.6325 µM)	relative viability ([4]; first compound 2 µM)	relative viability ([2]; first compound 0.06325 µM)
201T	0.337	0.336	0.35	0.329	0.361	0.594	0.625	0.61	0.496	0.72	0.399	0.589	0.541	0.517	0.865	0.798	0.762	0.761		
A-427	0.533	0.555	0.51	0.514	0.543		0.798	0.805	0.714	0.812	0.84	0.634	0.654	0.572	0.503		0.5	0.447	0.47	
ABC-1	0.749		0.741	0.872	0.664	0.624	0.689	0.522	0.523	0.821		0.786		0.726	0.516		0.504	0.521	0.564	
BEN	0.469	0.541	0.488	0.458	0.467	0.312	0.307	0.339	0.296	0.702	0.544	0.681	0.782	0.582	0.285		0.262	0.287	0.302	
CAL-12T	0.374	0.412	0.535	0.496	0.444	0.625	0.612	0.503	0.51	0.692	0.724	0.637	0.699		0.714		0.605	0.702	0.471	
COR-L23	0.329	0.226	0.303	0.31	0.297	0.555	0.43	0.591	0.539						0.869	0.831	0.853	0.824	0.64	0.451
COR-L 105	0.425	0.367	0.454	0.395	0.428	0.324	0.277	0.308	0.287						0.771	0.739	0.65	0.653	0.685	0.335
ChaGo-K-1	0.988		0.982	0.871	0.879	0.58	0.522	0.515	0.579	0.979		0.941	0.791	0.943	0.444	0.511	0.538	0.56	0.491	0.51
EKVX	0.377		0.384	0.456		0.58	0.549	0.502	0.505			0.617	0.723			0.388	0.65	0.551	0.868	
EMC-BAC-2	0.525	0.571	0.514	0.553	0.517	0.337	0.322	0.327	0.308	1.21	1.3	1.19	1.21	1.11	0.378	0.338	0.39	0.399	0.364	0.349
EPLC-272H	0.309			0.34	0.297	0.393	0.367	0.311	0.289	0.218			0.156	0.15	0.265		0.273	0.311	0.249	
H3255	0.316	0.325	0.317	0.338	0.308	0.443	0.351	0.361	0.258	1.02	0.784		0.95	0.842	0.568	0.662	0.539	0.612	0.548	0.346
HARA	0.262		0.264	0.281	0.262	0.309	0.279	0.217	0.27	0.361	0.267	0.292	0.232	0.304	0.47		0.518	0.583	0.404	
HCC-15	0.496		0.822	0.778	0.713	0.722	0.668	0.594	0.598	0.449		1.32	1.42	1.3	0.716		0.623	0.683	0.666	
HCC-44	0.976		1.1		0.885							1.13	1.01	0.968	0.484	0.422	0.437	0.466	0.461	
HCC-78	0.468	0.527	0.528	0.452	0.499	0.343	0.403	0.35	0.343	0.592	0.714		0.636	0.58	0.332	0.387	0.389	0.366	0.314	0.355
HCC-366	0.435	0.425	0.502	0.35	0.412	0.805	0.822	0.648	0.584	0.367	0.364	0.288	0.208	0.181	1.01		1.05	0.812	0.748	
HCC-827	0.474	0.557	0.516	0.461	0.455	0.287	0.239	0.151	0.272	0.189	0.215	0.195	0.17	0.157		0.732	0.937	0.705	0.824	0.269
HOP-62	0.503		0.516	0.408	0.398	0.726	0.642	0.576	0.54	0.532		0.707	0.504	0.687	0.999		0.993	0.724	0.781	
LC-2-ad	0.543		0.559	0.5	0.508	0.603	0.461	0.484	0.588	0.965		0.76	0.772	0.813	0.788	0.623	0.822	0.833	0.929	0.545
LCLC-97TM1	0.25		0.267	0.172	0.219	0.926	0.875	0.81	0.86	0.28		0.238	0.258	0.177	0.562		0.577	0.542	0.444	

Cell Line	relative viability ([1]; first compound 0.02 µM)	relative viability ([1]; first compound 0.06325 µM)	relative viability ([1]; first compound 0.2 µM)	relative viability ([1]; first compound 0.6325 µM)	relative viability ([1]; first compound 2 µM)	relative viability ([2]; first compound 0.02 µM)	relative viability ([2]; first compound 0.2 µM)	relative viability ([2]; first compound 0.6325 µM)	relative viability ([2]; first compound 2 µM)	relative viability ([3]; first compound 0.02 µM)	relative viability ([3]; first compound 0.06325 µM)	relative viability ([3]; first compound 0.2 µM)	relative viability ([3]; first compound 0.6325 µM)	relative viability ([3]; first compound 2 µM)	relative viability ([4]; first compound 0.02 µM)	relative viability ([4]; first compound 0.06325 µM)	relative viability ([4]; first compound 0.2 µM)	relative viability ([4]; first compound 0.6325 µM)	relative viability ([4]; first compound 2 µM)	relative viability ([2]; first compound 0.06325 µM)
LCLC-103H	0.465	0.499	0.457	0.434	0.418	0.637	0.471	0.471	0.388	0.809	0.779	0.876	0.695	0.781	0.453	0.375	0.548	0.415	0.433	0.436
LK-2	0.757	0.726			0.662	0.258	0.282	0.276	0.15	0.343	0.442	0.335		0.33	0.178	0.207	0.151	0.217	0.212	0.266
LOU-NH91	0.524	0.543	0.547	0.572	0.496	0.569	0.607	0.567	0.56	0.784	0.829	0.81	0.809	0.749	0.759	0.708	0.745	0.699	0.658	0.581
LU99A	0.394	0.424	0.411	0.413	0.454	0.761	0.555	0.736	0.372	0.437	0.274	0.336	0.254	0.405	0.315	0.285	0.301	0.323	0.28	0.637
LXF-289	0.602		0.655	0.556	0.578	0.216	0.217	0.19	0.195	1.13		1.25	1.04	1.09	0.791	0.556	0.814	0.754	0.724	0.259
NCI-H520	0.25	0.21	0.198	0.242	0.213	0.158	0.206	0.186	0.169						0.214	0.255	0.242	0.224	0.273	0.213
NCI-H596						0.597	0.831	0.499	0.641	1.21	1.03		0.948	1.13	0.775	0.669	0.689	0.626	0.61	0.582
NCI-H661	0.428	0.368	0.393	0.394	0.412	1.09	0.753	0.958	0.769						0.738	0.818	0.802	0.645	0.695	0.57
NCI-H1563						0.458	0.457	0.421	0.448						0.825	0.803	0.774	0.743	0.731	0.523
NCI-H1648	0.23	0.262	0.256	0.267	0.237					0.723	0.732	0.686	0.642	0.526	0.253	0.266	0.243		0.237	
NCI-H1650	0.341	0.344	0.342	0.295	0.301	0.371	0.326	0.285	0.261						0.629	0.481	0.39	0.544	0.512	0.262
NCI-H1666	0.678	0.628	0.642	0.705	0.621	0.83	0.825	0.792	0.697	0.902	0.873	0.792	0.849	0.809						0.838
NCI-H1703										0.135		0.103	0.124	0.114						
NCI-H2009	0.202	0.157	0.194	0.2	0.203	0.282	0.304	0.253	0.288						0.666		0.672	0.623	0.582	
NCI-H2023	0.537	0.494	0.387		0.345	0.751	0.565	0.591	0.509						0.524	0.303	0.426	0.314	0.334	0.33
NCI-H2228	1.06	0.73	0.664	0.916	0.697	0.621	0.464	0.424	0.55						0.755		0.489	0.423	0.478	
SK-LU-1	0.427	0.427	0.418	0.34	0.425	0.16	0.162	0.181	0.186						0.332	0.409	0.319	0.264	0.365	0.212
SK-MES-1	0.318	0.336	0.321	0.316	0.294	0.372	0.372	0.318	0.337						0.717	0.407	0.642	0.521	0.597	0.309
SW 1573	0.404	0.435	0.41	0.265	0.405	0.525	0.604	0.517	0.531						0.708	0.24	0.685	0.573	0.548	0.314
UMC-11	0.333	0.337	0.333	0.33	0.269	0.527	0.619	0.507	0.457						0.514	0.542	0.64	0.499	0.456	0.34
